Values joined by “and” are separate entries in the source; they are usually repeats but may differ in a detail not shown here. Equal entries are not always repeated.
System: CMV
Assay: Study HDP-CDV-201: prevention or control of CMV infection in R+ HSCT recipients (efficacy)
Type: in vivo, human (adult allogeneic HSCT recipients)
Conditions: for Difference (HDP-CDV minus placebo) in rate of CMV DNAemia ≧1,000 copies/mL / Rate of CMV DNAemia ≧1,000 copies/mL during the treatment period: CMV modified strata: positive; for Discontinuation: Emergence of CMV disease / Discontinuation: Initiation of alternate CMV therapy: active treatment period
Procedure: The clinical study of the current invention (HDP-CDV-201) was a 9-11 week randomized, placebo-controlled, double-blind, dose-escalation study (40 mg weekly [QW], 100 mg QW, 200 mg QW, 200 mg twice-weekly [BIW], and 100 mg BIW) of HDP-CDV for the prevention of CMV infection post-HCT. Treatment was initiated at the time of engraftment and continued until Week 13 post-HCT. HDP-CDV, at various doses, was active and well tolerated in the prevention CMV infection or disease.
Clinical Studies of HDP-CDV were performed and described in detail in the following Examples. For example, HDP-CDV-201 is a placebo-controlled, dose-escalating trial in HSCT CMV (R+) recipients, evaluating the ability of HDP-CDV to prevent or control CMV infection was carried out. Five cohorts were established in which participants or subjects received either placebo or the HDP-CDV orally, in doses ranging from 40 mg weekly (QW) to 200 mg twice weekly (BIW). Subjects who were post-HSCT were enrolled at the time of engraftment and randomized to HDP-CDV or placebo (3 to 1 ratio) and received blinded therapy until approximately 100 day post-transplantation. HDP-CDV doses were 40 mg QW, 100 mg QW, 200 mg QW, 200 mg BIW and 100 mg BIW. Escalation to the next dose was decided by the data monitoring committee after review of the safety data from the previous Cohort. Subjects who developed CMV disease or CMV infection requiring pre-emptive therapy with local standard of care were discontinued from blinded therapy and followed for 4 weeks. Subjects who completed treatment with blinded therapy were followed for 8 weeks post-therapy.
The primary endpoint was defined as the incidence of CMV disease at any time during treatment or CMV DNAemia≧200 copies/mL at the end of treatment. All subjects who received at least one dose of drug/placebo and had at least one efficacy evaluation post baseline were included in the primary analysis, regardless of their CMV DNAemia status (negative or positive) at baseline (mITT population). Results for the pooled HDP-CDV Cohorts and for each Cohort separately were analyzed versus that for pooled placebo.
The primary efficacy measure for this study was treatment failure, defined as the occurrence of CMV infection, defined as CMV DNAemia>200 copies/mL at the End of Treatment or diagnosis of CMV disease at any time during the treatment period. For the analysis, the following definitions apply:
For subjects who completed the treatment phase of the study, the End of Treatment was defined as the latest assessment from date of the last dose of study drug and up to 7 days for QW dosing, or the date of the last dose of study drug and up to 4 days for BIW dosing. For subjects who discontinued during the treatment phase of the study, the End of Treatment was defined as the date of the last dose of study drug.
The time to event was defined as the period between FDD and date of first occurrence of the event of interest (inclusive). The events included onset of CMV DNAemia, onset of CMV disease, and discontinuation because of excluded anti-CMV medications. Time to event/onset was derived as (the event/onset date—FDD)+1.
As detailed in the Statistical Analysis Plan, a modified CMV stratum was defined prior to conducting the statistical analysis based upon polymerase chain reaction (PCR) results from the central laboratory. If any positive CMV DNA value in plasma was collected before the first dose of study drug (including Screening, Pre-dose, (combined Screening/Pre-dose), CMV for stratification, and FDD), then the subject was placed into the modified CMV positive (≧100 copies/mL) stratum, otherwise the subject was in the modified CMV negative stratum. […]

[1] = 40 mg QW, CMV modified strata: negative
[2] = 40 mg QW, modified CMV negative stratum
[3] = 40 mg QW, treatment period, CMV DNA negative at baseline
[4] = 40 mg QW, whole study period, CMV DNA negative at baseline
[5] = 100 mg BIW, CMV modified strata: negative

CCCCCCCCCCCCCCCCOCCCOP(=O)(O)COC(CO)Cn1ccc(N)nc1=O (stereo not drawn) [HDP-CDV]
anti-CMV activity (in words) (40 mg QW): inactive
Difference (HDP-CDV minus placebo) in infection rate [1]: 9.1%
Difference (HDP-CDV minus placebo) in rate of CMV DNAemia ≧1,000 copies/ml [1]: −9.7%
Rate of CMV DNAemia ≧1,000 copies/ml during the treatment period [1]: 22.2%
Rate of CMV Disease or End of Treatment CMV Infection [1]: 38.9%
Difference (HDP-CDV minus placebo) in rate of CMV DNAemia ≧1,000 copies/mL (40 mg QW): 2.4%
Rate of CMV DNAemia ≧1,000 copies/mL during the treatment period (40 mg QW): 85.7%
Rate of CMV Disease or End of Treatment CMV Infection (40 mg QW, aGVHD randomization strata: negative): 52.2%
Difference (HDP-CDV minus placebo) in infection rate (40 mg QW, aGVHD strata: negative): 20.1%
Discontinuation: Emergence of CMV disease (40 mg QW): 3 Subject n (%) and 3 (12.0%) Subject n (%)
Discontinuation: Initiation of alternate CMV therapy (40 mg QW): 8 (32.0%) Subject n (%)
Difference (HDP-CDV minus placebo) in rate of CMV DNAemia ≧1000 copies/mL (40 mg QW, mITT): −2.4%
Difference (HDP-CDV minus placebo) in rate of CMV disease or end of treatment CMV infection (40 mg QW, mITT): 14.7%
Subjects Receiving Antiviral Therapy and/or had CMV disease (40 mg QW, mITT): 11 (44.0%) subjects (%)
Subjects without a CMV event (40 mg QW, mITT): 14 (56.0%) subjects (%)
Time to Antiviral Therapy, Median (40 mg QW, mITT): 29.0 days
Rate of CMV Disease or End of Treatment CMV Infection (≧200 copies/ml) (40 mg QW, mITT, missing=infection): 52%
Rate of CMV DNAemia ≧1000 copies/mL during the treatment period (40 mg QW, mITT, post hoc): 40.0%
Time to Antiviral Therapy, Mean (40 mg QW, mITT, censored values not included): 27.1 days
Subjects Who Had CMV-related Event (CMV disease, CMV DNAemia ≧1,000 c/mL or initiation of anti-CMV treatment) [2]: 5 (27.8%) subjects (%)
Subjects without a CMV-related event [2]: 13 (72.2%) subjects (%)
Developed CMV DNAemia (≧100 copies/mL) during the treatment period (40 mg QW, plasma CMV DNA negative at baseline, mITT): 10 (52.6%) N(%)
Median Survival Time to CMV DNAemia (Kaplan-Meier) [3]: 51.0 days
Time to CMV DNAemia (≧100 copies/mL), Median [3]: 14.5 days
Time to CMV DNAemia (≧100 copies/mL), Mean (40 mg QW, treatment period, CMV DNA negative at baseline, censored values not included): 17.8 days
Median Survival Time to CMV DNAemia (Kaplan-Meier) (40 mg QW, whole study period): 51.0 days
Number of Subjects who had CMV DNAemia (≧100 copies/mL) by the end of study [4]: 11
Time to CMV DNAemia (≧100 copies/mL), Mean [4]: 24.5 days
Time to CMV DNAemia (≧100 copies/mL), Median [4]: 15.0 days
% CMV Event Rate, primary: CMV DNAemia >200 copies/mL at end of treatment OR CMV disease during treatment (100 mg BIW (N = 41), CMV modified strata: negative): 2 (4.9%) subjects (%)
% CMV Event Rate, primary: CMV DNAemia >200 copies/mL at end of treatment OR CMV disease during treatment (100 mg BIW (N = 46), aGVHD strata: negative): 4 (8.7%) subjects (%)
% CMV Event Rate, primary: CMV DNAemia >200 copies/mL at end of treatment OR CMV disease during treatment (100 mg BIW (N = 50), mITT): 5 (10.0)%
CMV events (disease at any time or >200 copies at end of treatment) (100 mg BIW, CMV modified positive stratum (3 of 9)): 33%
Difference (HDP-CDV minus placebo) in infection rate [5]: −24.9%
Difference (HDP-CDV minus placebo) in rate of CMV DNAemia ≧1,000 copies/ml [5]: −31.9%
Rate of CMV DNAemia ≧1,000 copies/ml during the treatment period [5]: 0%
Rate of CMV Disease or End of Treatment CMV Infection [5]: 4.9% and 5%
Difference (HDP-CDV minus placebo) in rate of CMV DNAemia ≧1,000 copies/mL (100 mg BIW): −38.9%
Rate of CMV DNAemia ≧1,000 copies/mL during the treatment period (100 mg BIW): 44.4%
Rate of CMV Disease or End of Treatment CMV Infection (100 mg BIW, aGVHD randomization strata: negative): 9% and 8.7%
Difference (HDP-CDV minus placebo) in infection rate (100 mg BIW, aGVHD strata: negative): −23.4%
Discontinuation: Emergence of CMV disease (100 mg BIW): 1 Subject n (%) and 1 (2.0%) Subject n (%)
Discontinuation: Initiation of alternate CMV therapy (100 mg BIW): 6 (12.0%) Subject n (%)
Difference (HDP-CDV minus placebo) in rate of CMV DNAemia ≧1000 copies/mL (100 mg BIW, mITT): −34.4%
Difference (HDP-CDV minus placebo) in rate of CMV disease or end of treatment CMV infection (100 mg BIW, mITT): −27.3%

Source: US20140303092A1 (CHIMERIX, INC., priority 2011, published 2014)
